# In patent EP0074929A1, “Polycyclic polyazaheterocycles, process for their preparation and pharmaceutical preparations containing them” (CIBA-GEIGY AG, priority 1981, dated 1983):
# Where a name gives a salt, the structure may show the parent alone. Read-outs that look alike come from different tables or passages of the source.
# Legend:
# [1] = tested on: durch Tetrabenazin induzierten Ptosis; experiment: Antagonism of tetrabenazine-induced ptosis in the rat (Rubin et al.); format: in vivo, Ratte
# Procedure: (§1) Die Verbindungen der allgemeinen Formel I und ihre Säureadditionssalze besitzen wertvolle psychopharmakologische Eigenschaften. Insbesondere wirken sie antagonistisch gegenüber der durch Reserpin induzierten Hypothermie, z.B. bei intraperitonealer oder peroraler Applikation an der Ratte, [vgl. Benz und Waser, Arzneimittelforsch. 21 (5) 654 (1971)] im Dosenbereich von 10 bis 100 mg/kg, und gegenüber der durch Tetrabenazin induzierten Ptosis bei intraperitonealer oder peroraler Applikation an der Ratte [vgl. Rubin et al., J. Pharmacol. exptl. Ther. 120, 125 (1957)] im Dosenbereich von 3 bis 100 mg/kg. Beispielsweise beträgt die ED50 von 4,5-Dihydro-2-[(dimethylamino)-methyl]-5-phenyl-1,2,4-triazolo[1,5-a]chinoxalin-hydrochlorid im zweitgenannten Test 3-10 mg/kg per os und 10 mg/kg i.p.. Im Sozialkonflikt-Test an der Ratte zeigen die Verbindungen der allgemeinen Formel I, wie die vorgenannte, anxiolytische Wirkung nach peroraler Verabreichung von Dosen ab 1 mg/kg. […] Die Toxizität der Verbindungen der allgemeinen Formel I ist im Vergleich zu den erwünschten pharmakologischen Wirkungen niedrig. Diese Eigenschaften kennzeichnen die Verbindungen der allgemeinen Formel I als Antidepressiva und Anxiolytica, die zur Behandlung von Depressionen Verwendung finden können.
# [2] = tested on: Sozialkonflikt-Test; experiment: Social conflict test in the rat; format: in vivo, Ratte; settings: po, peroral, lowest dose with anxiolytic effect, read-out: anxiolytische Wirkung nach peroraler Verabreichung von Dosen ab
# Procedure: as §1
# [3] = tested on: isolierten Meerschweinchenvorhof; experiment: Isolated guinea pig atrium, inotropic and chronotropic effect; set-up: species or system Meerschweinchen
# [4] = tested on: isolierten Meerschweinchenvorhof; settings: known antidepressants, stated as contrast; cited from earlier work
Compound,ED50 ([1]; ip),"ED50 ([1]; po, per os)",minimal effective dose [2],chronotrope Wirkung [3],inotrope Wirkung [3],chronotrope Wirkung [4],inotrope Wirkung [4]
"CN(C)Cc1nc2n(n1)-c1ccccc1N(c1ccccc1)C2 [4,5-Dihydro-2-[(dimethylamino)-methyl]-5-phenyl-1,2,4-triazolo[1,5-a]chinoxalin-hydrochlorid]",10 mg/kg,3 to 10 mg/kg,≥ 1 mg/kg,schwach negativ chronotrope,schwach positiv inotrope,–,–
CN(C)CCCN1c2ccccc2CCc2ccccc21 [Imipramin],–,–,–,–,–,positiv chronotropen,eher negativ inotropen
